{"source": "ChEMBL document CHEMBL1201862", "about": "“PubChem BioAssay data set” (2004)", "key": {"[1]": {"biological_target": "Intestinal-type alkaline phosphatase (Mus musculus, UniProt P24822)", "sequence (P24822 whole entry)": "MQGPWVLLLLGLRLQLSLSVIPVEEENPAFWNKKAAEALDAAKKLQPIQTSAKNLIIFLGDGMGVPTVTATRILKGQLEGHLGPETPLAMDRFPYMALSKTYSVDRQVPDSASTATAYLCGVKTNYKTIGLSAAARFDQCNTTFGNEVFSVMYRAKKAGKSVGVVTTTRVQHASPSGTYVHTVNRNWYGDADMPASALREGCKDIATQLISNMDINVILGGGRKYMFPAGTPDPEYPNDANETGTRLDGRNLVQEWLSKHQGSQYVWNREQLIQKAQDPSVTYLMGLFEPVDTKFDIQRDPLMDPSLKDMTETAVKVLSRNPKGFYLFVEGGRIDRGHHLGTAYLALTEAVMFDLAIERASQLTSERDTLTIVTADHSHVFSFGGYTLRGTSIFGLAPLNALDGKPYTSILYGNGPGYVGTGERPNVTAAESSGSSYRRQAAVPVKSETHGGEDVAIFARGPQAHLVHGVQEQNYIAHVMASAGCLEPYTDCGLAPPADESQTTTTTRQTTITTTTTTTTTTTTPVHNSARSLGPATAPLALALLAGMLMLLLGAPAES", "assay": "PubChem AID 488874", "type": "functional"}, "[2]": {"biological_target": "T1, Intestinal-type alkaline phosphatase (Homo sapiens, UniProt P09923)", "T1 sequence (P09923 whole entry)": "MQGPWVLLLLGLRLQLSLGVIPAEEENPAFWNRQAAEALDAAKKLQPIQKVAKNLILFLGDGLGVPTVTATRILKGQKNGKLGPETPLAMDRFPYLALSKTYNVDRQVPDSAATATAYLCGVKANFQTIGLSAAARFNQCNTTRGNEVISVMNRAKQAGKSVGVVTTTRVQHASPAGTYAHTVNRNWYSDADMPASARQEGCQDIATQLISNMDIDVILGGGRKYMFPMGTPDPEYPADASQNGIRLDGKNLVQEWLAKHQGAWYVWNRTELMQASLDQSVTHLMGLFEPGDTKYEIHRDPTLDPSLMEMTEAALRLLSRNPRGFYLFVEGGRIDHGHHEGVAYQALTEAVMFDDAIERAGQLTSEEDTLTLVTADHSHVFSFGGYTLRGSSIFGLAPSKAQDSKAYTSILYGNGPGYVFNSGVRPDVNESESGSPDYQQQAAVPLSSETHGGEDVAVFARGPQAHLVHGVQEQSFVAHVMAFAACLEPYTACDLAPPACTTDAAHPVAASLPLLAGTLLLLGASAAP", "assay": "human intestinal alkaline phosphatase activators, dose response, biochemical, luminescence, uHTS hits (AID 463120)", "type": "functional"}, "[3]": {"biological_target": "T1, Intestinal-type alkaline phosphatase", "assay": "activation of human intestinal alkaline phosphatase – biochemical, luminescent, uHTS hits, set 2, dose response (AID 488817);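 further: potency of activators that raise enzyme activity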", "type": "functional"}, "[4]": {"biological_target": "T2, Alkaline phosphatase, tissue-nonspecific isozyme (Homo sapiens, UniProt P05186)", "T2 sequence (P05186 whole entry)": "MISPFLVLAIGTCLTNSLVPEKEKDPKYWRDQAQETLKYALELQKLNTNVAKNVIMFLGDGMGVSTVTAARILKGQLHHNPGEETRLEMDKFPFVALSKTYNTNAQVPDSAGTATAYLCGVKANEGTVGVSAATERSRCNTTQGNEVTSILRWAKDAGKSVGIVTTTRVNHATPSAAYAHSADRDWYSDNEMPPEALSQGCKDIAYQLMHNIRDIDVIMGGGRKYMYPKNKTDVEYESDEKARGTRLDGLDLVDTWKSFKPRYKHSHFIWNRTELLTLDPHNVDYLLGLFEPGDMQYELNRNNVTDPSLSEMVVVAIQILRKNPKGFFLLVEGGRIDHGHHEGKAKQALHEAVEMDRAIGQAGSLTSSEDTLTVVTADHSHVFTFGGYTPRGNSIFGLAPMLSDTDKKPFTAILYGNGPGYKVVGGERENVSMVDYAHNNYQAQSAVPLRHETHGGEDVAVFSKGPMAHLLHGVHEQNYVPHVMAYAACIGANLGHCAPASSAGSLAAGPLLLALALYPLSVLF", "assay": "activation of tissue-nonspecific alkaline phosphatase – biochemical, TNAP isozyme, human IAP uHTS hits, selectivity assay for human IAP activator project, dose response (AID 488886);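 further: potency of compounds raising TNAP activity as a selectivity check on IAP activators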", "type": "functional"}, "[5]": {"biological_target": "T3, Long-chain-fatty-acid--AMP ligase FadD28 (Mycobacterium tuberculosis, UniProt P9WQ59)", "T3 sequence (P9WQ59 whole entry)": "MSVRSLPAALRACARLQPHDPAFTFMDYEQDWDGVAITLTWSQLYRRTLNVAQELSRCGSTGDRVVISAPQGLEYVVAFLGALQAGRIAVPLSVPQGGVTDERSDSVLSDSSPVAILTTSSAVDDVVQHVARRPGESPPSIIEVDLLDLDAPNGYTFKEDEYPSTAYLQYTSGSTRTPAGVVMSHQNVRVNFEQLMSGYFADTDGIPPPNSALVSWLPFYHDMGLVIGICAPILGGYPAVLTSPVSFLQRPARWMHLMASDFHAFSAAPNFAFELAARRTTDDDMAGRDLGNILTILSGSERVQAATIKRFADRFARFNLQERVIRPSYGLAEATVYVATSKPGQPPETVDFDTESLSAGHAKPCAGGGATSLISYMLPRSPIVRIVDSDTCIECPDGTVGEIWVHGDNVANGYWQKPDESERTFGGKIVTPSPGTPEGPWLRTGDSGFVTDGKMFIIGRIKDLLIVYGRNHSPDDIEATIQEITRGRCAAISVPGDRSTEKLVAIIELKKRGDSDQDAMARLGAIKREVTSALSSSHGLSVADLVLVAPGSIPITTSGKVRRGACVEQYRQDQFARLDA", "assay": "Fluorescence polarization aasay to screen for inhibitors that compete for the binding of FadD28 to a bisubstrate Measured in Biochemical System Using Plate Reader - 2147-01_Inhibitor_Dose_CherryPick_Activity.", "type": "functional, Mycobacterium tuberculosis H37Rv"}, "[6]": {"biological_target": "Peroxisome proliferator-activated receptor gamma/Nuclear receptor coactivator 1 (Homo sapiens, UniProt P37231)", "assay": "(§1) TR-FRET dose response biochemical High Throughput Screening assay for agonists of the steroid receptor coactivator 1 (SRC-1) recruitment by the peroxisome proliferator-activated receptor gamma (PPAR gamma): non-selective agonists. [Related pubchem assays (depositor defined):AID1300, AID1808, AID504735, AID631]", "type": "protein assay"}, "[7]": {"biological_target": "Peroxisome proliferator-activated receptor gamma/Nuclear receptor coactivator 3 (Homo sapiens, UniProt P37231)", "sequence (P37231 whole entry)": "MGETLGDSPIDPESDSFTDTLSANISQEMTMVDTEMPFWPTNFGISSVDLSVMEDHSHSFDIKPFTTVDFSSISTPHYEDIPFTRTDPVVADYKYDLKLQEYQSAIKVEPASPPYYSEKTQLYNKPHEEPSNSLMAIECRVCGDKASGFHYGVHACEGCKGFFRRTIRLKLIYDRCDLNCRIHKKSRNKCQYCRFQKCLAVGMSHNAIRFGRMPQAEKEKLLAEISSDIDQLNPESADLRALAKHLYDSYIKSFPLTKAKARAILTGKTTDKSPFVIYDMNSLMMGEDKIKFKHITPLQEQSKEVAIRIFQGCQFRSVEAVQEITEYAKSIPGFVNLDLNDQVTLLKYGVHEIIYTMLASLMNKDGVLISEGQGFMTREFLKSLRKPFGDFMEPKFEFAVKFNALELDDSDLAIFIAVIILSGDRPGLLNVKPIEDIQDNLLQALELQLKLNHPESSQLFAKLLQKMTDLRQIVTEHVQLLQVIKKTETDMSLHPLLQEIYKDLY", "sequence (Q9Y6Q9 whole entry, further chain)": "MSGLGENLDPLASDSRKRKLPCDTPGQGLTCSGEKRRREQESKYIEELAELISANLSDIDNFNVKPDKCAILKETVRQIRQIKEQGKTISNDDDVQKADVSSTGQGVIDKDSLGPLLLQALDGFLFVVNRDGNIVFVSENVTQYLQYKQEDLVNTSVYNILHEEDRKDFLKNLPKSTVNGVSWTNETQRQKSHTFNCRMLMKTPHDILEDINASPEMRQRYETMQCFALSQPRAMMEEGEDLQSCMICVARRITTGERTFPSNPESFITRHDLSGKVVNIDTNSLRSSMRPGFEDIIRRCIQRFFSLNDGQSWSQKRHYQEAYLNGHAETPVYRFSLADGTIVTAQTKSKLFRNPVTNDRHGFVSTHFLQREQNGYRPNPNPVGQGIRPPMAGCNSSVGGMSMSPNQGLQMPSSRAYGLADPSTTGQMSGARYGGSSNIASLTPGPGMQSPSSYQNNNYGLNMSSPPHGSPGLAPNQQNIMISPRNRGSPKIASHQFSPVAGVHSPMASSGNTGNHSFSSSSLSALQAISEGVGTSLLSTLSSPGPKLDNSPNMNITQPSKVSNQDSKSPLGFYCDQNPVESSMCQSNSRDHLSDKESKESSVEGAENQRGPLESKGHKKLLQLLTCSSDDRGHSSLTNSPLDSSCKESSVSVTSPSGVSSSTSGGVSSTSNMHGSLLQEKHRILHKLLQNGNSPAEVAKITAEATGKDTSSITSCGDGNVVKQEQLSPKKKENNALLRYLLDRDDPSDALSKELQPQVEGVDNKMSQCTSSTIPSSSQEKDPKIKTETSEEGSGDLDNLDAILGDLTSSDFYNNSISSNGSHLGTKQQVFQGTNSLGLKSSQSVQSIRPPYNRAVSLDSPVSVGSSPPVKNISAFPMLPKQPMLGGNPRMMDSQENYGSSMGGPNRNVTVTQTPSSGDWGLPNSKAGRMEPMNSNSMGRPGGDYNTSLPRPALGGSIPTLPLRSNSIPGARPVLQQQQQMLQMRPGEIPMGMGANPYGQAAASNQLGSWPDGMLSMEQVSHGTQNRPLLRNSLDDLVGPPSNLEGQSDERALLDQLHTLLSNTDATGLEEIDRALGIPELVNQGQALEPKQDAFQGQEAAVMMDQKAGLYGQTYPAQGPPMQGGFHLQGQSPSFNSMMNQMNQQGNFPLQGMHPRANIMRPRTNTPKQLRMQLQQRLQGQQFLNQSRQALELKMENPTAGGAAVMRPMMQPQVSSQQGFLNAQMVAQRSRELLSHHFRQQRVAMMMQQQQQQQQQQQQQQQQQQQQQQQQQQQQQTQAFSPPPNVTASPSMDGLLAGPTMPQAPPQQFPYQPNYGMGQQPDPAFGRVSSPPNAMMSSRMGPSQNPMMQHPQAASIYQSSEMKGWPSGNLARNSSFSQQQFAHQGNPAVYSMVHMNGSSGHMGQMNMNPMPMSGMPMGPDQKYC", "assay": "as §1, with “3 (SRC-3)” for “1 (SRC-1)”, “assays: 1301 (Confirmation screen.), 1048 (Primary screen.)]” for “assays (depositor defined):AID1300, AID1808, AID504735, AID631]”", "type": "functional"}, "[8]": {"biological_target": "Peroxisome proliferator-activated receptor gamma/Nuclear receptor coactivator 2 (Homo sapiens, UniProt P37231)", "assay": "TR-FRET dose response biochemical High Throughput Screening assay for agonists of the steroid receptor coactivator 2 (SRC-2) recruitment by the peroxisome proliferator-activated receptor gamma (PPAR gamma): non-selective agonists. [Related pubchem assays: 1297, 1032 ]", "type": "functional"}, "[9]": {"biological_target": "T4, Ubiquitin-conjugating enzyme E2 N (Homo sapiens, UniProt P61088)", "T4 sequence (P61088 whole entry)": "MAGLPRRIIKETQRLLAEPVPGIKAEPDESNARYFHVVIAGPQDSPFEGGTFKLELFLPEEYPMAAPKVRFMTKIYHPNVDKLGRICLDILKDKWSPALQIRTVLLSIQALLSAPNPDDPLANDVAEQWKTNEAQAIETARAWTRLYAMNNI", "type": "functional"}, "[10]": {"assay": "HEK-293T cell viability reduction – luminescence, B-cell screen hits, cytotoxicity control for BCR NF-kB inhibitor project, dose response (AID 489021)", "type": "functional, cell-based"}, "[11]": {"biological_target": "T5, Bcl-2-related protein A1 (Mus musculus, UniProt Q07440)", "T5 sequence (Q07440 whole entry)": "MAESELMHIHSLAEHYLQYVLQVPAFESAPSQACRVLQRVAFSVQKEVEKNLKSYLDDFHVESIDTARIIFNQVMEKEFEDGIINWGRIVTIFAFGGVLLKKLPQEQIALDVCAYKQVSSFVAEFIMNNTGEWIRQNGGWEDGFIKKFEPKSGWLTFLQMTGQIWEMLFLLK", "type": "functional"}, "[12]": {"biological_target": "T4, Ubiquitin-conjugating enzyme E2 N", "type": "functional", "remark": "listed apart in the source"}, "[13]": {"assay": "NIH-3T3 fibroblast cytotoxicity, dose response, cytotoxicity control, cell-based, fluorescence, Alamar Blue, secondary assay (AID 2327)", "type": "functional"}, "[14]": {"assay": "fluconazole-exposed Candida albicans growth modulators – fluorescence, retest, confirmation (AID 2467)", "type": "functional, cell-based"}, "[15]": {"assay": "viability of PTEN-deleted HCT116 cells – cell-based, HCT116 PTEN knockout, dose response (AID 1047)", "type": "functional"}, "[16]": {"assay": "viability of HCT116 lacking mutant beta-catenin – cell-based, human colon tumor, dose response (AID 1045)", "type": "functional"}, "[17]": {"assay": "THP-1 cell cytotoxicity, dose response, cytotoxicity control for non-replicating M. tuberculosis project (AID 489025)", "type": "functional"}, "[18]": {"assay": "HepG2 cell cytotoxicity, dose response, cytotoxicity control for non-replicating M. tuberculosis project (AID 489018)", "type": "functional", "settings": "Mycobacterium tuberculosis"}, "[19]": {"assay": "Vero E6 cell cytotoxicity, dose response, cytotoxicity control for non-replicating M. tuberculosis project, secondary assay (AID 492998)", "type": "functional, VeroE6", "settings": "Vero C1008"}, "[20]": {"biological_target": "FAD-linked sulfhydryl oxidase ALR (Homo sapiens, UniProt P55789)", "sequence (P55789 whole entry)": "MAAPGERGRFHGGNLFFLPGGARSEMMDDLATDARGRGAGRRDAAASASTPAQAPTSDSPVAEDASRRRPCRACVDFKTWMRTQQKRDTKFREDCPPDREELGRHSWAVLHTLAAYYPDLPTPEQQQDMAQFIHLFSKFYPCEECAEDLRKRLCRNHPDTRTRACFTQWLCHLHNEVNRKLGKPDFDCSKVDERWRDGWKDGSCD", "assay": "ALR-catalysed DTT oxidation blockers – biochemical, H2O2 detection, luminescence, cherry-pick, dose response (AID 493248)"}, "[21]": {"biological_target": "T6, Microphthalmia-associated transcription factor (Homo sapiens, UniProt O75030)", "T6 sequence (O75030 whole entry)": "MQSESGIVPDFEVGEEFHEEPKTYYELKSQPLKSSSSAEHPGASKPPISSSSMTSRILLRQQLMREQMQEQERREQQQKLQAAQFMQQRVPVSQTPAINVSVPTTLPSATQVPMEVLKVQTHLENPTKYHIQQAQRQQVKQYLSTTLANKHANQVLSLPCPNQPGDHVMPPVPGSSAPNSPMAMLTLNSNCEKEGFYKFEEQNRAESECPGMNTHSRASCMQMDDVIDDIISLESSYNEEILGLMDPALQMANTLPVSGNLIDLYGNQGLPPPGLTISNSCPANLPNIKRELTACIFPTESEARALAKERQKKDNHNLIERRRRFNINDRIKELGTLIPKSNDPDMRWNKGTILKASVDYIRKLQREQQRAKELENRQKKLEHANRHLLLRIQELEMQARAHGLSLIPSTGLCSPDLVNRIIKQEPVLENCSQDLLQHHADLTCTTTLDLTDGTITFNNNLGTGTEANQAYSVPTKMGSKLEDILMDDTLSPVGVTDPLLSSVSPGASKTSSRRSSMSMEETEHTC", "assay": "reducers of TRPM1 reporter luminescence, concentration series – cell-based, SK-MEL-5, cherry-picked, set 3, MITF inhibitor project, dose response (AID 493073)", "type": "functional"}, "[22]": {"assay": "cells", "type": "functional"}, "[23]": {"test_system": "INS1", "assay": "INS-1E survival protection against cytokine death – cell-based, luminescence, retest, dose response (AID 449756)", "type": "functional", "settings": "Rattus norvegicus"}, "[24]": {"test_system": "A-375", "assay": "proliferation inhibition in MITF-low A375 cells – cell-based, cherry-pick samples, set 2, counter-screen for MITF modulator project, dose response (AID 540335)", "type": "functional", "settings": "Homo sapiens"}, "[25]": {"assay": "reduction of Shn3 3'UTR-driven luciferase in osteoblasts – cell-based, Clone20 osteoblasts, firefly luciferase, cherry-picked, dose response (AID 624132)", "type": "functional"}, "[26]": {"assay": "loss of viability in HepG2 cells – cell-based, CellTiter-Glo, cherry-picked, cytotoxicity control for Shn3 inhibitor project, dose response (AID 624134)", "type": "functional"}, "[27]": {"assay": "non-specific 3'UTR reporter inhibition in Clone20-Shn3RL – cell-based, Renilla luciferase, cherry-picked, counter-screen for Shn3 inhibitor project, dose response (AID 624133)", "type": "functional"}, "[28]": {"biological_target": "Paired box protein Pax-8 (Homo sapiens, UniProt Q06710)", "sequence (Q06710 whole entry)": "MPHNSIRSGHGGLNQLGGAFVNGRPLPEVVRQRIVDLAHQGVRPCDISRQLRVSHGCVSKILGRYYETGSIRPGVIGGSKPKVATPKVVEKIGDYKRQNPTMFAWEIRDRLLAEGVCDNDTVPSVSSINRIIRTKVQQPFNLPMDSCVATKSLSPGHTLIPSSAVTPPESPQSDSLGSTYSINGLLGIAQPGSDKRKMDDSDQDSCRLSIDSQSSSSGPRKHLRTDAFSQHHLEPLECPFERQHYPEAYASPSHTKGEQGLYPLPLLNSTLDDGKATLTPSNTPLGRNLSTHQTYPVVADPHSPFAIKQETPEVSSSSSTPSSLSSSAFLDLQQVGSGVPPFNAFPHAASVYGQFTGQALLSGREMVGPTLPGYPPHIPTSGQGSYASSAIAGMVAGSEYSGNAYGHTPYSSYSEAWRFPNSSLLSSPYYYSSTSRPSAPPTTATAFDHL", "assay": "PAX8 transcriptional activity inhibition in RMG-I – RMG-I cells, luciferase, cherry-pick, dose response (AID 687027)", "type": "functional, cell-based"}}, "note": "Calls of active or inactive are those of the source.", "data": [{"smiles": "CN(C)S(=O)(=O)c1cccc(NC(=S)NNC(=O)c2cc3ccccc3cc2O)c1", "values": [{"measurement": "IC50", "setting": "[1]", "value": "34.2 µM (active)"}, {"measurement": "EC50", "setting": "[2]", "value": "8.74 µM (active)"}, {"measurement": "EC50", "setting": "[3]", "value": "16.1 µM (active)"}, {"measurement": "EC50", "setting": "[4]", "value": "12.5 µM (active)"}, {"measurement": "AC50", "setting": "[5]", "value": "77.8 µM (active)"}]}, {"smiles": "CCN1CCN(C(=O)CSc2cc(=O)n(CC)c3ccccc23)CC1", "values": [{"measurement": "EC50", "setting": "[6]", "value": "> 79.4 µM (inactive)"}, {"measurement": "EC50", "setting": "[7]", "value": "> 79.4 µM (not active)"}, {"measurement": "EC50", "setting": "[8]", "value": "> 79.4 µM (not active)"}, {"measurement": "IC50", "setting": "[9]", "value": "> 20 µM (inactive)"}, {"measurement": "IC50", "setting": "[10]", "value": "> 80 µM (inactive)"}]}, {"smiles": "CC(C)(C)OC(=O)N1CCC(NC(=O)c2[nH]cnc2C(=O)Nc2ccon2)CC1", "values": [{"measurement": "IC50", "setting": "[1]", "value": "47.2 µM (active)"}, {"measurement": "EC50", "setting": "[2]", "value": "10.1 µM (active)"}, {"measurement": "EC50", "setting": "[3]", "value": "13.3 µM (active)"}, {"measurement": "EC50", "setting": "[4]", "value": "13.9 µM (active)"}]}, {"smiles": "O=C(CCCn1c(=O)c2ccccc2n(Cc2cccc(F)c2)c1=O)NC1CCN(Cc2ccccc2)CC1", "values": [{"measurement": "IC50", "setting": "[11]", "value": "> 20 µM (inactive)"}, {"measurement": "IC50", "setting": "[9]", "value": "2.11 µM (active)"}, {"measurement": "IC50", "setting": "[12]", "value": "1.31 µM (active)"}]}, {"smiles": "O=C(c1ccccc1)C(CN1CCCC1)c1ccccc1", "note": "(stereo not drawn)", "values": [{"measurement": "EC50", "setting": "[13]", "value": "> 160 µM (inactive)"}, {"measurement": "EC50", "setting": "[14]", "value": "0.292 µM (active)"}, {"measurement": "EC50", "setting": "[15]", "value": "2.82 µM (active)"}, {"measurement": "EC50", "setting": "[16]", "value": "1.88 µM (active)"}, {"measurement": "CC50", "setting": "[17]", "value": "9.86 µM (active)"}, {"measurement": "CC50", "setting": "[18]", "value": "14.7 µM (active)"}, {"measurement": "CC50", "setting": "[19]", "value": "9.26 µM (active)"}, {"measurement": "AC50", "setting": "[20]", "value": "3.73 µM (active)"}, {"measurement": "AC50", "setting": "[21]", "value": "5.33 µM (active)"}, {"measurement": "IC50", "setting": "[22]", "value": "8.41 µM (active)"}, {"measurement": "AC50", "setting": "[23]", "value": "4.07 µM (active)"}, {"measurement": "AC50", "setting": "[24]", "value": "25.2 µM (active)"}, {"measurement": "AC50", "setting": "[25]", "value": "10.7 µM (active)"}, {"measurement": "AC50", "setting": "[26]", "value": "17.4 µM (active)"}, {"measurement": "AC50", "setting": "[27]", "value": "6.34 µM (active)"}, {"measurement": "AC50", "setting": "[28]", "value": "4.88 µM (active)"}]}]}
